Test results reported in patent publication EP0835125B1, “CD4-DERIVED PEPTIDES THAT INHIBIT IMMUNE RESPONSES” (THOMAS JEFFERSON UNIVERSITY, priority 1995, dated 2004).
“And” between values parts separate entries of the source, which are not always exact repeats. Equal entries are not always repeated. Where two headings read alike, the source gives them in different places. Bridge positions count the residues as written; N and C are the ends. Peptide text beside a SMILES is read from it.

What was measured:
EAE = EAE inhibition in vivo, SJL EAE model, daily severity score on 0-5 scale; design: species or system mice; conditions: for effect on EAE in mice, in words: b73: 0.5 mg dose i.v. 12 days after immunization
Experimental: The C-C' loop peptides were initially tested for efficacy in the SJL EAE model. In untreated animals, a high incidence of disease was observed 15-22 days after two s.c. inoculations of 1 mg of crude murine spinal cord homogenate in complete Freund's adjuvant. The severity of the disease was scored daily using the established 0-5 scale that describes the level of ascending paresis, Korngold, R., et al., 1986, Immunogenetics 24:309-315. The level of the mean EAE severity grade of mice for the untreated control group reached a maximum of 2.0. […] Also shown are the results of groups of mice that received the rD-mPGPtide, a mimic of residues 86-104 of murine homolog of CD4, which was described in Jameson et al. 1994, Nature 368:744-746.

[1] = tested on: interaction of CD4 and MHC, class II; assay: Rosetting of Raji cells and CD4-transiently transfected COS-7 cells, microscopic count; assay type: cell-based, human; conditions: 200 µM, three independent assays
Experimental: The cyclic peptide CNSNQIC (SEQ ID NO:45) at 200 µM was tested to determine if the peptide inhibited the interaction of CD4 and MHC, class II. The test was performed by rosetting Raji cells and CD4-transiently transfected COS-7 cells. See: Moebius, U. et al., 1992, Proc. Natl. Acad. Sci. 89:12008-12; Moebius, U., et al., 1993, Proc. Natl. Acad. Sci. 90:8259-63.
The sequence of human CD4 cDNA is given in Maddon, P.J. et al., 1985, CELL 42:93-104, which sequence is hereby incorporated by reference. […]
For transfection of COS-7 cells, a CD4-expression plasmid T4-pcDNA3, was constructed by subcloning the 3.0 Kb Eco R1 fragment of T4-pMV7 into the EcoRI site of the mammalian expression vector pcDNA3 (INVITROGEN). […] Rosette formation between Raji cells and transfected COS-7 cells was scored microscopically at 100-fold magnification. The number of rosette containing more than five Raji cells was counted in 10 random optical fields in each individual well; 300-400 rosettes per well were counted as the positive control for rosette formation without any inhibition in the absence of any chemicals. The inhibition activity for rosette formation for each chemical was determined by the ratio of the number of rosettes obtained in the presence of this chemical to the number of rosettes in the positive control. […]

[2] = tested on: interaction of CD4 and MHC, class II; assay: Rosetting of Cr51-labelled Raji cells to stably T4-pMV7-transfected COS-1 cells; assay type: cell-based, human; conditions: 200 µM
From the text: In a second construct, the T4-pMV7 plasmid, which contains a Tn5 neo selectable marker, was introduced into Cos-1 cells by electroporation. Stably transfected cells were isolated by selection with G-418 and the resultant transformants expressed CD4.
Raji cells were labelled with Cr^51 and rosetted to the stably T4-pMV7-transfected COS-1 cells.

[3] = tested on: responder cell alloreactive proliferation (human T cell); conditions: for inhibition (suppressive effect on human T cell activation): 3 h, 100 µM; for activity in human MLR / human T cell proliferation in vitro, in words: in b95 the words describe the cyclic peptide relative to the linear peptides KNSNQI, KNSNQ, NSNQI (linear ones less active)
Experimental: For this assay, fresh peripheral blood lymphocytes from two different donors are co-cultured; the cells of one donor were irradiated and served as stimulators. Proliferation of these activated T cells was measured by measuring the incorporation of ^3H-thymidine at various timepoints.
For human MLR, 50 ml of whole blood was collected into anti-coagulant (ACD, acid citrate dextrose) containing tubes. In 50 ml conical tubes, 20 ml of blood was layered over 20 ml Ficoll 1077 (Sigma Chemical Co., St. Louis, MO) and centrifuged at 2000 rpm for 35-40 min at 15-20°C. Buffy coats and serum were collected in 3x volume of PBS centrifuged at 1500 rpm for 15 min at 15-20°C. Supernatants were discarded, cells were washed 2x in 50 ml PBS and resuspended in RPMI supplemented with 10% heat-inactivated (56°, 30 min) human serum (cat# H4522, Sigma), 50 IU/ml pen/strep and 2mM (1% of 200 mM stock) L-glutamine (both from BioWhitaker). Lymphocyte yield varied between 5-8x10^7.
In a 96-well flat bottom plate 1 x 10^5 responders were plated with 2 x 10^5 irradiated (3000 rad) simulators/well (added in 100 µl each), and incubated for 6, 7 or 8 days at 37°C, 7% CO2. Peptide analogues were added to quadruplicate wells, at a concentration of 100 µM (5 mg/ml stock) or titrations thereof, immediately after cells were plated. For radiolabelling, the cells were incubated with 1 µCi [^3H]TdR/well (25 µl) (diluted from 1mCi/ml stock, Amersham) for the final 6 hours of incubation. Cells were harvested using a fiberfilter cell harvester (e.g., Harvester 96, Tomtec) and counted in a Beta Counter of Beta plate reader (1205 BS Betaplate Liquid Scintillation Counter, Wallac) with scintillation fluid.

[4] = target: MHC, class II, gene products on Raji cells (human); assay: rosette assay, Cr51-labelled Raji cells (MHC class II) on stably T4-pMV7-transfected COS-1 cells (CD4), peptide at 200 uM
[5] = target: MHC, class II, gene products on Raji cells (human); assay: rosette assay, Raji cells (MHC class II) on CD4-transiently transfected COS-7 cells, peptide at 200 uM, blocks CD4/MHC class II interaction; independent assay 1 of 3
[6] = target: MHC, class II, gene products on Raji cells (human); assay: rosette assay, Raji cells (MHC class II) on CD4-transiently transfected COS-7 cells, peptide at 200 uM, blocks CD4/MHC class II interaction; independent assay 2 of 3
[7] = target: MHC, class II, gene products on Raji cells (human); assay: rosette assay, Raji cells (MHC class II) on CD4-transiently transfected COS-7 cells, peptide at 200 uM, blocks CD4/MHC class II interaction; independent assay 3 of 3
[8] = listed as CNSNQIC (SEQ ID NO:44)

Compound	maximum severity level (mean EAE severity grade) (EAE; 0.5 mg i.v. on day 12, 0-5 scale, untreated control group maximum 2.0)	effect on EAE in mice, in words (EAE)	effect on EAE in mice, in words (EAE; [8])	inhibition of the rosettes [1]	inhibition of rosetting [2]	inhibition (suppressive effect on human T cell activation) [3] [%]	activity in human MLR / human T cell proliferation in vitro, in words [3]	activity in human MLR / human T cell proliferation in vitro, in words [3, 8]	percent inhibition of rosetting [4] [%]	percent inhibition of rosettes [5] [%]	percent inhibition of rosettes [6] [%]	percent inhibition of rosettes [7] [%]
CC[C@H](C)[C@@H]1NC(=O)[C@H](CCC(N)=O)NC(=O)[C@H](CC(N)=O)NC(=O)[C@H](CO)NC(=O)[C@H](CC(N)=O)NC(=O)[C@@H](N)CSSC[C@@H](C(=O)O)NC1=O [CNSNQIC (SEQ ID NO:45), CNSNQIC] (H-CNSNQIC-OH; disulfide 1-7 (inferred); N-terminus and C-terminus assumed)	1.0	effective to ameliorate EAE	inhibitor of EAE in mice	57% and 63% and 51%	greater than 75%	54.4	significantly higher activity than the linear peptides	highly potent inhibitor of human T cell proliferation	–	–	–	–
CC[C@H](C)[C@H](NC(=O)[C@H](CCC(N)=O)NC(=O)[C@H](CC(N)=O)NC(=O)[C@H](CO)NC(=O)[C@H](CC(N)=O)NC(=O)[C@@H](N)CS)C(=O)N[C@@H](CS)C(=O)O [linear CNSNQIC, CNSNQIC] (H-CNSNQIC-OH)	–	–	–	–	–	32.2	–	–	–	–	–	–
cyclic peptide CNSNQIC (SEQ ID NO:45)	–	–	–	–	–	–	–	–	> 75	57	63	51
